pIC50: −log10 of the molar value. Read-outs that look alike come from different tables or passages of the source.
System: HIV-1 (H9/IIIB strain)
Test: Multiple round HIV-1 infection assay (Viking assay) in MT4-GFP cells
Format: cell-based
Conditions: MT4-GFP cells infected with HIV-1 H9/IIIB, inhibition of reproductive ratio R0
Procedure: Assessing Antiviral Potency in a Multiple Round HIV-1 Infection Assay (Viking Assay)
The antiviral activity of the tenofovir prodrugs of the Examples herein was assessed in an assay that measures the rate of replication of HIV in cell culture, termed the Viking assay (Viral KINetics in Green cells) and performed as follows. HIV-1 replication was monitored using MT4-gag-GFP clone D3 (hereafter designated MT4-GFP), which are MT-4 cells modified to harbor a GFP reporter gene, the expression of which is dependent on the HIV-1 expressed proteins tat and rev. Productive infection of an MT4-GFP cell with HIV-1 results in GFP expression approximately 24 h post-infection. MT4-GFP cells were maintained at 37° C./5% CO2/90% relative humidity in RPMI 1640 supplemented with 10% fetal bovine serum, 100 μ/ml penicillin/streptomycin, and 400 μg/ml G418 to maintain the reporter gene. For infections, MT4-GFP cells were placed in the same medium lacking G418 and infected overnight with HIV-1 (H9/IIIB strain) virus at an approximate multiplicity of infection of 0.01 in the same incubation conditions. Cells were then washed and re-suspended in either RPMI 1640 supplemented with 10% or 50% normal human serum (NFIS) at 1.6×10^5 cells/mL (10% NHS or 50% NHS, respectively). Compound plates were prepared by dispensing compounds dissolved in DMSO into wells of 384 well poly-D -lysine-coated plates (0.2 μl/well) using an ECHO acoustic dispenser. Each compound was tested in a 10-point serial 3-fold dilution (typical final concentrations: 8.4 μM-0.42 nM). Controls included no inhibitor (DMSO only) and a combination of three antiviral agents (efavirenz, indinavir, an in-house integrase strand transfer inhibitor at final concentrations of 4 μM each). Cells were added (50 μL/well) to compound plates and the infected cells were maintained at 37° C./5% CO2/90% relative humidity.
infected cells were quantified at two time points, ˜48 h and ˜72 h post -infection, by counting the number of green cells in each well using an Acumen eX3 scanner. The increase in the number of green cells over ˜24 h period gives the reproductive ratio, R0, which is typically 5-15 and has been shown experimentally to be in logarithmic phase (data not shown). Inhibition of R0 is calculated for each well, and IC50s determined by non-linear 4-parameter curve fitting.

[1] = Human immunodeficiency virus 1, IIIB, 10% normal human serum, read-out: Viking, IC50 (10% NHS)
[2] = Human immunodeficiency virus 1, IIIB, 50% normal human serum, read-out: Viking, IC50 (50% NHS)
[3] = 10% normal human serum, read-out: Viking, IC50 (10% NHS)
[4] = 50% normal human serum, read-out: Viking, IC50 (50% NHS)

| SMILES | pIC50 [1] | pIC50 [2] | pIC50 [3] | pIC50 [4] |
| --- | --- | --- | --- | --- |
| CC(C)OC(=O)[C@H](C)OP(=O)(CO[C@H](C)Cn1cnc2c(N)ncnc21)NC1(C(=O)OC(C)C)CCCC1 (stereo partly drawn) [Example 48, Isopropyl 1-((((((R)-1-(6-amino-9H-purin-9-yl)propan-2-yl)oxy)methyl)(((S)-1-isopropoxy-1-oxopropan-2-yl)oxy)phosphoryl)amino)cyclo-pentane-1-carboxylate] | 7.88 | 7.43 |  |  |
| CC(C)OC(=O)COP(=O)(CO[C@H](C)Cn1cnc2c(N)ncnc21)NC(C)(C)C(=O)OC1CCCCC1 (single isomer, unassigned) [Example 15B] |  |  | 7.99 | 7.35 |
| C[C@H](Cn1cnc2c(N)ncnc21)OCP(=O)(NC(C)(C)C(=O)OC1CCCC1)O[C@@H](C)C(=O)OC1CCCC1 (single isomer, unassigned) [Example 5B] |  |  | 8.24 | 7.63 |
| CC(C)OC(=O)[C@H](C)OP(=O)(CO[C@H](C)Cn1cnc2c(N)ncnc21)NC(C)(C)C(=O)OC1CCCC1 (stereo partly drawn) [Example 39, Cyclopentyl 2-((((((R)-1-(6-amino-9H-purin-9-yl)propan-2-yl)oxy)methyl)(((S)-1-isopropoxy-1-oxopropan-2-yl)oxy)phosphoryl)amino)-2-methylpropanoate] | 8.46 | 7.90 |  |  |
| CCCCCOC(=O)[C@H](C)OP(=O)(CO[C@H](C)Cn1cnc2c(N)ncnc21)NC(C)(C)C(=O)OC(C)C (single isomer, unassigned) [Example 10B] |  |  | 7.07 | 6.45 |
| CCOC(=O)C(C)(C)NP(=O)(CO[C@H](C)Cn1cnc2c(N)ncnc21)OCC(=O)OC(C)C (stereo partly drawn) [Example 27, Ethyl 2-((((((R)-1-(6-amino-9H-purin-9-yl)propan-2-yl)oxy)methyl)(2-isopropoxy-2-oxoethoxy)phosphoryl)amino)-2-methylpropanoate] | 8.00 | 7.88 |  |  |
| CCCCCCOC(=O)C(C)(C)NP(=O)(CO[C@H](C)Cn1cnc2c(N)ncnc21)O[C@@H](C)C(=O)OC1CCCC1 (stereo partly drawn) [Example 34, Hexyl 2-((((((R)-1-(6-amino-9H-purin-9-yl)propan-2-yl)oxy)methyl)(((S)-1-(cyclopentyloxy)-1-oxopropan-2-yl)oxy)phosphoryl)amino)-2-methylpropanoate] | 8.45 | 7.89 |  |  |
| CC(C)OC(=O)COP(=O)(CO[C@H](C)Cn1cnc2c(N)ncnc21)NC(C)(C)C(=O)OC1CCCCC1 (single isomer, unassigned) [Example 15A] | 8.00 | 7.55 |  |  |
| CCCCCOC(=O)C(C)(C)NP(=O)(CO[C@H](C)Cn1cnc2c(N)ncnc21)O[C@@H](C)C(=O)OC1CCCC1 (single isomer, unassigned) [Example 19A] |  |  | 7.85 | 7.30 |
| CCCCOC(=O)C(C)(C)NP(=O)(CO[C@H](C)Cn1cnc2c(N)ncnc21)O[C@@H](C)C(=O)OC1CCCC1 (single isomer, unassigned) [Example 11B] |  |  | 8.40 | 7.64 |
| C[C@H](Cn1cnc2c(N)ncnc21)OCP(=O)(NC(C)(C)C(=O)OC1CCCC1)O[C@@H](C)C(=O)OC1CCCC1 (single isomer, unassigned) [Example 5A] | 8.24 | 7.35 |  |  |
| CC(C)OC(=O)[C@H](C)OP(=O)(CO[C@H](C)Cn1cnc2c(N)ncnc21)NC(C)(C)C(=O)OC1CCC1 (single isomer, unassigned) [Example 16B] |  |  | 8.32 | 7.77 |
| CC(C)OC(=O)[C@H](Cc1ccccc1)OP(=O)(CO[C@H](C)Cn1cnc2c(N)ncnc21)NC(C)(C)C(=O)OC(C)C (stereo partly drawn) [Example 32, Isopropyl 2-((((((R)-1-(6-amino-9H-purin-9-yl)propan-2-yl)oxy)methyl)(((S)-1-isopropoxy-1-oxo-3-phenylpropan-2-yl)oxy)phosphoryl)amino)-2-methylpropanoate] | 8.48 | 7.63 |  |  |
| CCOC(=O)[C@H](C)OP(=O)(CO[C@H](C)Cn1cnc2c(N)ncnc21)NC(C)(C)C(=O)OC(C)C (stereo partly drawn) [Example 40, Isopropyl 2-((((((R)-1-(6-amino-9H-purin-9-yl)propan-2-yl)oxy)methyl)(((S)-1-ethoxy-1-oxopropan-2-yl)oxy)phosphoryl)amino)-2-methylpropanoate] | 7.72 | 7.23 |  |  |
| CC(C)OC(=O)COP(=O)(CO[C@H](C)Cn1cnc2c(N)ncnc21)NC(C)(C)C(=O)OC1CCCC1 (single isomer, unassigned) [Example 14B] |  |  | 8.27 | 7.44 |
| CCCCCCOC(=O)C(C)(C)NP(=O)(CO[C@H](C)Cn1cnc2c(N)ncnc21)O[C@@H](C)C(=O)OCC (stereo partly drawn) [Example 43, Hexyl 2-((((((R)-1-(6-amino-9H-purin-9-yl)propan-2-yl)oxy)methyl)(((S)-1-ethoxy-1-oxopropan-2-yl)oxy)phosphoryl)amino)-2-methylpropanoate] | 8.21 | 7.69 |  |  |
| CC(C)COC(=O)C(C)(C)NP(=O)(CO[C@H](C)Cn1cnc2c(N)ncnc21)O[C@@H](C)C(=O)OC1CCCC1 (stereo partly drawn) [Example 37, Isobutyl 2-((((((R)-1-(6-amino-9H-purin-9-yl)propan-2-yl)oxy)methyl)(((S)-1-(cyclopentyloxy)-1-oxopropan-2-yl)oxy)phosphoryl)amino)-2-methylpropanoate] | 7.99 | 7.20 |  |  |
| CCCCCCOC(=O)C(C)(C)NP(=O)(CO[C@H](C)Cn1cnc2c(N)ncnc21)OC(C)(C)C(=O)OC(C)C (stereo partly drawn) [Example 44, Hexyl 2-((((((R)-1-(6-amino-9H-purin-9-yl)propan-2-yl)oxy)methyl)((1-isopropoxy-2-methyl-1-oxopropan-2-yl)oxy)phosphoryl)amino)-2-methylpropanoate] | 8.85 | 8.74 |  |  |
| CCOC(=O)C(C)(C)NP(=O)(CO[C@H](C)Cn1cnc2c(N)ncnc21)O[C@@H](C)C(=O)OC(C)C (stereo partly drawn) [Example 28, Ethyl 2-((((((R)-1-(6-amino-9H-purin-9-yl)propan-2-yl)oxy)methyl)(((S)-1-isopropoxy-1-oxopropan-2-yl)oxy)phosphoryl)amino)-2-methylpropanoate] | 8.20 | 7.71 |  |  |
| CCOC(=O)C(C)(C)NP(=O)(CO[C@H](C)Cn1cnc2c(N)ncnc21)O[C@H](C)C(=O)OC(C)C (stereo partly drawn) [Example 29, Ethyl 2-((((((R)-1-(6-amino-9H-purin-9-yl)propan-2-yl)oxy)methyl)(((R)-1-isopropoxy-1-oxopropan-2-yl)oxy)phosphoryl)amino)-2-methylpropanoate] | 8.04 | 7.76 |  |  |
| CCCCCCOC(=O)C(C)(C)NP(=O)(CO[C@H](C)Cn1cnc2c(N)ncnc21)O[C@H](C)C(=O)OC(C)C (single isomer, unassigned) [Example 9A] |  |  | 8.38 | 7.58 |
| CC(C)OC(=O)[C@H](C)OP(=O)(CO[C@H](C)Cn1cnc2c(N)ncnc21)NC1(C(=O)OC(C)C)CCC1 (stereo partly drawn) [Example 50, Isopropyl 1-((((((R)-1-(6-amino-9H-purin-9-yl)propan-2-yl)oxy)methyl)(((S)-1-isopropoxy-1-oxopropan-2-yl)oxy)phosphoryl)amino)cyclo-butane-1-carboxylate] | 8.06 | 7.46 |  |  |
| CC(C)OC(=O)COP(=O)(CO[C@H](C)Cn1cnc2c(N)ncnc21)NC(C)(C)C(=O)OC1CCC1 (single isomer, unassigned) [Example 17A] | 8.19 | 7.90 |  |  |

From US10449208B2, “Antiviral prodrugs of tenofovir” (Merck Sharp & Dohme Corp., priority 2016, dated 2019)
